According to patent US20080003438A1, “Heterocyclic siloxanes for use in biocidal coatings and materials” (Auburn University, priority 2002, published 2008):

How the values were obtained:
[1] = tested on: MS2 phage; assay: Antiviral activity of chlorinated coated surfaces, modified AATCC Method 100-1998; type: cell-based, MS2 virus
Description: Soft and hard surfaces were treated by exposure to a solution of 3-triethoxysilylpropyl-5,5-dimethylhydantoin, as prepared in Example 1, and then halogenated with hypochlorite bleach, prior to being exposed to a challenge inoculum of a virus (MS2 phage). […] Soft surfaces used in these experiments were swatches of woven cotton textiles, and slabs cut from a standard kitchen sponge. Hard surfaces used were porcelain and marble tiles.
For the preparation of antimicrobial textiles, fabric and sponge samples were immersed in 5% solution of 3-triethoxysilylpropyl-5,5-dimethylhydantoin and dried in a convection oven at 90° C. for two hours. Chlorination of the coated cellulose materials was accomplished by placing them in the wash chamber of a standard, household washing machine, and processing them through a normal, cold water small load cycle, with one rinse. The washing solution contained 100 mL of CLOROX ULTRA (sodium hypochlorite) per load. […] Chlorine contents were calculated and expressed as ppm Cl^+. […]
Hard surface samples were exposed to the 3-triethoxysilylpropyl-5,5-dimethylhydantoin by using a sponge soaked in the 5% solution, before transfer to a drying oven at 90° C. for two hours. […] Chlorine bound to hard surfaces was determined by iodometric/thiosulfate titration, and chlorine contents were expressed as μg Cl^+ per square cm. […]

[2] = Chlorine loading of coated, chlorinated surfaces by iodometric/thiosulfate titration; type: physicochemical; conditions: for average chlorine loading on the swatches: 10% CLOROX 30 min; for chlorine content: chlorinated in household washing machine; for chlorine bound to hard surface: 10% CLOROX
Description: Swatches of Style 400 Bleached 100% Cotton Print Cloth (Testfabrics, Inc.) were treated with 3-triethoxysilylpropyl-5,5-dimethylhydantoin, prepared as described in Example 1, in the following manner. A treatment bath was prepared containing 5.0 g of 3-triethoxysilylpropyl-5,5-dimethylhydantoin, 3.0 g of potassium thiocyanate, 50 mL of ethanol, and 50 mL of water. After 1 hour of equilibration of the bath mixture, the cotton swatches were soaked in the bath for 10 min. After partially drying in air at ambient temperature, the swatches were cured for 1 hour at 95° C. The swatches were then soaked in a 0.5% liquid detergent solution for 15 min, rinsed with tap water, and allowed to dry in air at ambient temperature. […] The swatches were stored in a vacuum desiccator until use.
The siloxane polymer described above was coated onto 100% cotton fabric. This was accomplished by soaking swatches of the material for about 2 minutes at ambient temperature in a bath containing 5 g of the polysiloxane, 70 mL of ethanol, and 40 mL of water. The swatches were cured at 130° C. in air for 20 minutes, then soaked in 1.5% liquid detergent for 15 minutes at ambient temperature, and then rinsed thoroughly with water. […] An iodometric/thiosulfate titration indicated a chlorine loading on the cotton material of about 0.42%.
Finally, a wash test was performed on swatches of cotton containing the monomer 3-triethoxysilylpropyl-5,5-dimethylhydantoin coating and the polysiloxane coating, each chlorinated and unchlorinated, for comparison purposes. Two treatment baths were prepared, one containing an 8% solution of 3-triethoxysilylpropyl-5,5-dimethylhydantoin in a 50% solution of ethanol in water, the other containing an 8% solution of siloxane polymer prepared as described above in a 66.7% solution of ethanol in water. Identical cotton swatches were soaked in the two baths for 2.5 minutes at ambient temperature, cured in air at 130° C. for 20 minutes, soaked in 1.5% liquid detergent at ambient temperature for 15 minutes, rinsed thoroughly with water, and dried in air at 50° C. for 30 minutes. Then one-half of the swatches of each type were chlorinated by soaking them in 5% CLOROX at ambient temperature for 45 minutes. These chlorinated samples were rinsed thoroughly with water and dried in air at 50° C. for 30 minutes to remove all occluded free chlorine. Iodometric/thiosulfate titrations were performed on representative samples to determine initial chlorine loadings. The average chlorine loading for the silane monomer-coated samples was 0.61%; for the siloxane polymer-coated samples, the average chlorine loading was 0.40%. Then all types of coated swatches were subjected to laundry washing cycles using AATCC Test Method 61 (Test 2A Procedure). Samples were evaluated after 5, 10, and 50 washing cycles for retention of the coatings. Those samples not chlorinated before washing were chlorinated by the procedure described above in order to assess how much chlorine could be loaded after variable numbers of washing cycles. Those chlorinated before washing were divided into two groups with half being assessed for chlorine loading without rechlorination, the other half being rechlorinated and then assessed for chlorine loading. Three observations are clearly evident from the data in Table 3. First, both the silane and the siloxane coatings are partially lost upon successive washings. Second, prechlorination reduces the rate of loss, probably due to increasing the hydrophobicity of the surface, thus reducing the rate of hydrolysis loss of the siloxane coatings. Third, the siloxane coating, which is not chlorinated to as high a level as the silane one upon initial chlorination, is lost at a slower rate than is the silane coating. For all of the coatings, at least partial biocidal efficacy would be regenerated upon rechlorination after 50 washing cycles. […]

CCO[Si](CCCN1C(=O)NC(C)(C)C1=O)(OCC)OCC [3-triethoxysilylpropyl-5,5-dimethylhydantoin]
Log 10 reduction of MS2 titer ([1]; cellulose substrates (textile and sponge), 24 hours of contact): approximately 4 logs
Log 10 reduction of MS2 titer ([1]; hard surfaces, contact times of as little as 6 hours): approximately 2 logs
chlorine on hard surface ([2]; PVC (Example 12)): 4.1 μg per cm^2
average initial chlorine loading before washing ([2]; cotton, 8% treatment bath, cured 130° C. 20 min, 5% CLOROX 45 minutes): 0.61%
average chlorine loading on the swatches ([2]; cotton, KSCN in treatment bath): 0.61±0.14%
chlorine content ([2]; cotton): approximately 4000 ppm Cl^+
average chlorine loading on the swatches ([2]; cotton, without KSCN): 0.49±0.07%
chlorine bound to hard surface ([2]; marble tile): 6.9 μg Cl^+ per square cm
chlorine on hard surface ([2]; marble tiles (Example 12)): 6.9 μg per cm^2
chlorine bound to hard surface ([2]; porcelain tile): 3.3 μg Cl^+ per square cm
chlorine concentration on soft surface ([2]; rayon fabrics (Example 12)): 4000 ppm
chlorine content ([2]; sponge slabs): 1000-2000 ppm
chlorine concentration on soft surface ([2]; synthetic fibers (Example 12)): approximately 800 ppm
